# Assay results reported in PubChem BioAssay (NCI).
# Where “and” joins values, the source holds several entries; their conditions need not be identical. Equal entries are not always repeated.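 Dose response: 5 concentrations. Exposure: 48 h. Format: 96-well plates. Endpoint: linear interpolation; highest concentration if not reached. TGI is the concentration that stops growth completely.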 Numbered stars: 1 amine (or outer) side, 2 acyl side, 3 side chain; on linkers, the order of the positions; unused ones are H or OH. Bridge positions count the residues as written; N and C are the ends. Square brackets hold non-standard residues; d marks the D form. Peptide text beside a SMILES is read from it. I, II: the chains in the order shown. Actinocin(1to9) = Cc1c2oc3c(C)ccc(C(=O)[*:2])c3nc-2c(C(=O)[*:1])c(N)c1=O; NMeV = CN[CH](C(=O)O)C(C)C; Sar = CNCC(=O)O
# Assays:
# Test in all cases: NCI anticancer screen, dose series, 48 h
# NCI-H522 lung = tested on: NCI-H522 lung
# IGROV1 ovarian = tested on: IGROV1 ovarian
# SK-OV-3 ovarian = tested on: SK-OV-3 ovarian
# A549 NSCLC = tested on: A549 NSCLC
# OVCAR-3 ovarian = tested on: OVCAR-3 ovarian
Structure (SMILES),TGI (NCI-H522 lung),TGI (IGROV1 ovarian),TGI (SK-OV-3 ovarian) [µM],TGI (A549 NSCLC),TGI (OVCAR-3 ovarian)
Cc1cccc2c(=O)c3c(O)cc4c(c3n(C)c12)C=CC(C)(C)O4,> 100 µM,> 100 µM,> 100,> 100 µM,> 100 µM
CC(C)=C=CC(C)(C)NS(=O)(=O)NC(C)(C)C=C=C(C)C,> 100 µM,> 100 µM,> 100,> 100 µM,> 100 µM
CCO/N=C(/CC)c1ccc(Br)s1,> 100 µM,> 100 µM,> 100,> 100 µM,> 100 µM
Cc1ccc(S(=O)(=O)NC(=O)NCC(=O)O)cc1,> 100 µM,> 100 µM,> 100,> 100 µM,
C[Si](C)(C)C#CCOC=C1CC1,> 100 µM,> 100 µM,> 100,> 100 µM,
CCCC(=O)Oc1cc(OC(=O)CCC)c2c(C)cc(=O)oc2c1,,> 100 µM,> 100,> 100 µM,> 100 µM
O=C(N1CCN(c2ccccc2)CC1)N(C(=O)C1(c2ccc(Cl)cc2)CCCC1)S(=O)(=O)c1ccccc1,36.6 µM,,82.9,> 100 µM,82.6 µM
O=C1Cc2c([nH]c3cc(Br)ccc23)-c2ccccc2N1,52.7 µM,99.7 µM,58.8,64.1 µM,83.4 µM
CC(C)C(=O)CP(=O)(O)O,> 100 µM,> 100 µM,> 100,> 100 µM,> 100 µM
Cc1cn(C2CC(O)C(Cn3nncc3Cn3ccc(=O)[nH]c3=O)O2)c(=O)[nH]c1=O (configuration not stated),> 100 µM,> 100 µM,> 100,> 100 µM,> 100 µM
COc1cc(N(CCC#N)CCC#N)ccc1/C(N=Nc1cccc(C)c1)=N\NC(=O)c1ccc(C)cc1,> 100 µM,> 100 µM,> 100,> 100 µM,> 100 µM
CCN(CC)c1ccc2cc(-c3csc(-c4ccc(N(C)C)cc4)n3)c(=O)oc2c1,> 100 µM,> 100 µM,> 100,> 100 µM,
CC(C)(C)OC(=O)CC(NC(=O)OC(C)(C)C)C(=O)Oc1ccc([N+](=O)[O-])cc1 (configuration not stated),> 100 µM,> 100 µM,> 100,> 100 µM,> 100 µM
NC1=CN(Cc2ccccc2)C2=N/C(=C\c3ccco3)C(=O)N12,> 100 µM,> 100 µM,> 100,> 100 µM,> 100 µM
COC(=O)c1ccccc1Nc1ccccc1C(=O)OC,> 100 µM,> 100 µM,> 100,> 100 µM,> 100 µM
N#CCCN(CCC#N)c1ccc(/C=C2\N=C(c3ccccc3)N(c3ccccc3)C2=O)cc1,> 100 µM,> 100 µM,> 100,> 100 µM,> 100 µM
CC(=O)Oc1ccc2c3c1[C@@H]1O[C@@H]1c1cccc(c1-3)[C@@H]1O[C@H]21,,,9.71,,
COC(=O)c1c(OC(C)=O)ccc2c1c1cc3ccccc3c(OC(C)=O)c1n2C,42.9 µM,12.8 µM,55.2,> 100 µM,62 µM
CCCNC(=O)c1cc(NC(=O)c2cc(NC(=O)CCS(=O)(=O)OC)cn2C)cn1C,6.07 µM,> 56.5 µM,22.8,> 100 µM,27.4 µM
NNC(=O)CSc1nnc(CCCCCCCCc2nnc(SCC(=O)NN)o2)o1,> 100 µM,> 100 µM,> 100,> 100 µM,
CSc1nc(Cl)c2c(n1)Sc1nc3ccccc3n1N=C2,39.4 µM,36.7 µM,> 100,> 100 µM,75.8 µM
N#Cc1c(Nc2ccccc2)[n+]([O-])c2ccc(Cl)cc2[n+]1[O-],6.49 µM,5.96 µM,> 100,> 60.8 µM,9.76 µM
O=C(CSCC(=O)N/N=C/c1ccncc1)N/N=C/c1ccncc1,> 100 µM,> 100 µM,> 100,> 100 µM,> 100 µM

Structure (SMILES),TGI (NCI-H522 lung),TGI (IGROV1 ovarian),TGI (SK-OV-3 ovarian) [µM],TGI (A549 NSCLC),TGI (OVCAR-3 ovarian)
CC1(C)O[C@@H](CP(c2ccc3ccccc3c2)c2ccc3ccccc3c2)[C@H](CP(c2ccc3ccccc3c2)c2ccc3ccccc3c2)O1,> 100 µM,> 100 µM,> 100,> 100 µM,> 100 µM
Cc1c(C=C(C#N)C#N)c(=O)n(C)c(=O)n1C,> 100 µM,> 100 µM,> 100,> 100 µM,> 100 µM
C=[N+](CNC(=O)CNC(=O)C(Cc1ccccc1)NC(=O)OC(C)(C)C)C(=O)CNC(=O)C(Cc1ccccc1)NC(=O)OC(C)(C)C (configuration not stated),> 100 µM,> 100 µM,> 100,> 100 µM,> 100 µM
CC(=O)c1cccc(NC(=O)/C(=N\NC(=S)NN)C2C(=O)Nc3ccccc3S2=O)c1 (configuration not stated),> 100 µM,> 100 µM,> 100,> 100 µM,> 100 µM
Cc1ccc2nnc(NS(=O)(=O)c3cc(C)c(Cl)cc3S)n2n1,> 100 µM,> 100 µM,> 100,> 100 µM,> 100 µM
COc1cc(C2S/C(=C/c3ccccc3)C(=O)N2c2ccccn2)cc(OC)c1OC (configuration not stated),24.6 µM,29.9 µM,> 90.6,> 64 µM,44.4 µM
Nc1c(O)c(C(=O)O)cc2ccccc12,54.2 µM,> 100 µM,> 100,> 100 µM,94.5 µM
COc1cc2c3c4c1OCc1c5c(cc(c1-4)CC3[N+](C)(C)CC2)OCO5 (configuration not stated),98 µM,> 100 µM,> 100,> 100 µM,> 100 µM
N=c1oc2ccc(Cl)cc2cc1C(=O)NC1CCCCC1,,> 100 µM,> 100,> 100 µM,> 100 µM
CCOC(=O)/C=C1\C[C@H](NC(=O)OCc2ccccc2)C(=O)N1CC(=O)OCC,> 100 µM,> 100 µM,> 100,> 100 µM,> 100 µM
OCC(O)C(O)C(C=NNc1ncnc2ccc(Br)cc12)=NNc1ncnc2ccc(Br)cc12 (configuration not stated),11.3 µM and 35.9 µM,12.2 µM and > 100 µM,> 100,60.7 µM and > 100 µM,28.2 µM and > 100 µM
C[C@]12CC[C@H]3[C@@H](CCC4=CC(=O)CC[C@@]43C)[C@@H]1CC[C@@H]2OC(=O)c1cccc2c(=O)c3ccccc3[nH]c12,> 100 µM,> 100 µM,> 100,> 100 µM,> 100 µM
CC(C)[Si](OC1=CCC[C@H]2NC(=O)[C@@H](Cc3ccc([N+](=O)[O-])cc3)[C@@]12C)(C(C)C)C(C)C,17.9 µM,28.8 µM,21.7,5.17 µM,11.7 µM
COc1cc(C2SC(N)=Nc3c2c(C)nn3C(=O)c2ccc(Cl)cc2)ccc1O (configuration not stated),> 10 µM,> 10 µM,> 10,> 10 µM,> 10 µM
CC(=O)Oc1cc2c(n(C)c1=O)CCC2,,> 100 µM,> 100,> 100 µM,
NC(=O)N/N=C/c1ccccc1O,,> 100 µM,> 100,,
O=C(O)CCCN=C(C(=NCCCC(=O)O)c1ccccc1)c1ccccc1,,> 100 µM,> 100,> 100 µM,> 100 µM
S=c1sscc1N1CCSc2ssc(=S)c21,59.7 µM,> 100 µM,,> 100 µM,
COc1ccccc1NC1=NCC(C)S1 (configuration not stated),> 100 µM,> 100 µM,> 100,> 100 µM,> 100 µM
N#C/C=C\c1ccc(-c2cc(C(F)(F)F)cc(C(F)(F)F)c2)o1,> 100 µM,> 100 µM,> 100,> 100 µM,> 100 µM
O=c1[nH]c(=S)c2[nH]c(=O)n(-c3ccccc3)c2[nH]1,> 100 µM,> 100 µM,,> 100 µM,> 100 µM
Cc1ccc(NCc2nnc3c(-c4ccccc4)nc4ccccc4n23)cc1,> 100 µM,> 100 µM,> 100,> 100 µM,> 100 µM
Cc1ccc(C)c(C(=N)c2ccccc2Cc2ccccc2)c1,30 µM,> 100 µM,79.1,> 100 µM,27.2 µM

Structure (SMILES),TGI (NCI-H522 lung),TGI (IGROV1 ovarian),TGI (SK-OV-3 ovarian) [µM],TGI (A549 NSCLC),TGI (OVCAR-3 ovarian)
COc1cc(OC)cc(Oc2nc3c(N)cc(C(F)(F)F)cc3nc2-c2ccccc2)c1,,> 100 µM,> 100,,
OCC1(CNc2cc(Cl)ncn2)CCC1,> 100 µM,> 100 µM,,> 100 µM,> 100 µM
CC(=O)NC1=CC(=O)C=C(Cl)C1=O,84 µM,> 100 µM,> 100,> 100 µM,> 100 µM
Cc1cc(C)nc(NS(=O)(=O)c2ccc(NC(=O)c3ccc4nc5ccccc5c(Nc5ccc(S(=O)(=O)Nc6nc(C)cc(C)n6)cc5)c4c3)cc2)n1,53.5 µM,> 100 µM,> 100,> 100 µM,> 100 µM
COC(=O)/C=C/N1CC1,> 10 µM,6.15 µM,> 10,> 10 µM,> 10 µM
COC(=O)C(=O)C(C(=O)C(=O)Nc1nc(=S)[nH][nH]1)c1nc2ccc([N+](=O)[O-])cc2[nH]c1=O (configuration not stated),> 100 µM,> 100 µM,> 100,> 100 µM,> 100 µM
NC(=O)N=Nc1c2ccccc2n2[nH]ccc12,> 100 µM,> 100 µM,> 100,> 100 µM,> 100 µM
"CCC(C)C1NC(=O)C(NC(=O)c2c3nc4c(C(=O)NC5C(=O)NC(C(C)C)C(=O)N6CCCC6C(=O)N(C)CC(=O)N(C)C(C(C)C)C(=O)OC5C)ccc(C)c4oc-3c(C)c(=O)c2N)C(C)OC(=O)C(C(C)C)N(C)C(=O)CN(C)C(=O)C2CCCN2C1=O (configuration not stated) (I: TIP[Sar][NMeV] / II: TVP[Sar][NMeV]; ester I:1-I:C, II:1-II:C; linker I:N-II:N via Actinocin(1to9); configuration not given here)",0.0158 µM,0.906 µM,13.2,13.9 µM,
Cc1ccc2c(c1)C/C(=C\c1ccccc1C(=O)O)C2=O,> 100 µM,> 100 µM,,> 100 µM,> 100 µM
COc1ccc(/C=C2\CC3C4CC=C5C[C@@H](O)CC[C@]5(C)C4CC[C@]3(C)C2=O)cc1OC (some centres not stated),57.6 µM,> 100 µM,> 100,> 100 µM,51.9 µM
CC(=O)Nc1ccc2c3c(cc(O)c2c1)N(C(=O)CCCCCC(=O)Nc1ccc2c4c(cc(O)c2c1)N(C(=O)OC(C)(C)C)CC4CCl)CC3CCl (configuration not stated),5.78 µM,28.5 µM,> 47.6,> 55 µM,4.54 µM
Cc1cccc(/C=C2\CCCCCC2=O)c1,> 100 µM,> 100 µM,> 100,> 100 µM,> 100 µM
O=c1c2cc([N+](=O)[O-])cnc2sn1-c1ccc(Br)cc1,22.6 µM,> 100 µM,99,> 100 µM,> 100 µM
O=C(NC(Cc1ccccc1)P(=O)(O)c1ccccc1)OCc1ccccc1 (configuration not stated),> 100 µM,> 100 µM,> 100,> 100 µM,> 100 µM
Fc1ccc(C(OCCN2CCC3CCC(C2)N3C/C=C/c2cccnc2)c2ccc(F)cc2)cc1 (configuration not stated),27 µM,27.1 µM,29.3,25.4 µM,29.5 µM
CC1(C)N=C(N)N=C(N)N1CCCCc1ccccc1,37.4 µM,> 100 µM,97.5,> 100 µM,> 36.8 µM
C1COCCOP2(N3CC3)=NP(N3CC3)(=NP(N3CC3)(N3CC3)=N2)OCCOCCO1 (configuration not stated),> 100 µM,> 100 µM,> 100,> 100 µM,> 100 µM
Cc1ccc(S(=O)(=O)N/N=C2\CC3C4CCC3C2C4)cc1 (configuration not stated),> 100 µM,> 100 µM,> 100,> 100 µM,> 100 µM
CCCCn1c2c(n(CCCC)c1=[Se])-c1c(n(CCCC)c(=[Se])n1CCCC)S[Se][Se]S2,3.34 µM,18.5 µM,58,> 61.3 µM,25 µM
CCOC(=O)c1c[nH]c2cc3c(cc2c1=O)CCS3,> 100 µM,> 100 µM,> 100,> 100 µM,> 100 µM
CCOC(=O)c1c(CN2CCOCC2)n(Cc2ccccc2)c2c1cc(O)c1nc(C)c(C)nc12,,,> 100,> 100 µM,> 100 µM
